Patent publication EP0245669B1, “Pharmaceutical preparation for preventing damage to living cells by free radicals, or for increasing the efficacy of organic sulphur compounds, and process for increasing the life span of isolated organs” (Medopharm Arzneimittelwerk Dr. Zillich GmbH & Co., priority 1986, dated 1987)
Counter-ions that a name gives are not always drawn.

Tested on: weiblichen C3H Mäusen
Assay: Radiation protection: survival of mice after gamma irradiation (cobalt-60) following i.p. pretreatment
Format: in vivo, Mäuse
Settings: for Ueberlebensrate nach Bestrahlung mit 9 Gy / überlebten eine Bestrahlung mit 9 Gy: 10 min before 9 Gy; for Ueberlebensrate nach Bestrahlung mit 9 Gy / Ueberlebensrate nach Bestrahlung mit 11 Gy / Ueberlebensrate nach Bestrahlung mit 13 Gy / Ueberlebensrate nach Bestrahlung mit 12 Gy / Ueberlebensrate nach Bestrahlung mit 14 Gy / Ueberlebensrate nach Bestrahlung mit 10 Gy: surviving after 30 days/irradiated mice; for Ueberlebensrate in %: AET alone in optimal dosage, 30 days after irradiation; for Ueberlebensrate nach Bestrahlung mit 10 Gy / überlebten eine Bestrahlung mit 10 Gy: 10 min before 10 Gy
Source text: In den nachfolgenden Beispielen wurde die synergistische Wirkung der durch die erfindungsgemässe Verwendung hergestellten pharmazeutischen Präparate mit organische Schwefelverbindungen enthaltenden Präparaten anhand des Strahlenschutzes getestet und es wurde auch die Strahlenschutzwirkung der Zinkionen enthaltenden Präparate mit bisher bekannten Strahlenschutzpräparaten an Mäusen getestet. Die Versuche wurden mit weiblichen C3H Mäusen (GL. Bomholtgard, Ry, Dänemark) durchgeführt, die 20 bis 22 g wogen. Die Mäuse wurden unter Bedingungen gehalten, wo sie so viel Standard-Nagetierfutter (Nafag Pellts) fressen und so viel Leitungswasser trinken können, wie sie wollten. Die Bestrahlung erfolgte mit Gammastrahlen aus einer Kobalt-60 Quelle. Es wurden unterschiedliche Bestrahlungen vorgenommen, und zwar mit 9 Gy, 10 Gy, 11 Gy, 12 Gy, 13 Gy und 14 Gy.
10 Minuten vor der Bestrahlung, 30 Minuten vor der Bestrahlung oder 120 Minuten vor der Bestrahlung wurde ein durch die erfindungsgemässe Verwendung hergestelltes synergistisch wirkendes pharmazeutisches Präparat, bzw. ein entsprechendes, Zinkionen enthaltendes Strahlenschutzpräparat oder ein aus dem Stand der Technik bekanntes Strahlenschutzpräparat zu Vergleichszwecken durch intraperitoneale Injektion verabreicht.
Bei der Gruppe der Mäuse zu Vergleichszwecken, die ohne Verabreichung eines Strahlenschutzpräparates bestrahlt wurden, erfolgte 10 Minuten vor der Bestrahlung die Verabreichung von destilliertem Wasser. Bei diesen unbehandelten Mäusen überlebten nur 50% der Tiere eine Bestrahlung von 8 Gy, d.h. der LD₅₀-Wert betrug 8 Gy.
Nach den Arbeitsweisen der vorangegangenen Beispiele 1 bis 4, wurden weitere Tests mit den genannten weiblichen Mäusen durchgeführt, und zwar unter Verwendung der angeführten Zinksalze. Die bei diesen Tests erzielten Ergebnisse sind in der nachfolgenden Tabelle I zusammengestellt. Für jede der angewandten Bestrahlungsstärken ist in der Rubrik "Anzahl" diejenige Anzahl der Mäuse angeführt, welche die Bestrahlung überlebten, geteilt durch die Gesamtzahl der Mäuse, welche bestrahlt wurden. Ein entsprechender Wert von 1/10 bedeutet also, dass von 10 bestrahlten Mäusen eine überlebt hatte. In der Spalte mit der Bezeichnung "Prozent", ist die Prozent-Ueberlebensrate angeführt. Bei einer überlebenden Maus pro 10 getesteten Mäusen beträgt diese Ueberlebensrate 10 %.
Zu Vergleichszwecken sind in der nachfolgenden Tabelle III die Ueberlebensraten von Mäusen zusammengestellt, die nach dem in Beispiel 5 beschriebenen Verfahren einer Vorbehandlung mit einem bekannten schwefelhaltigen Strahlenschutzmittel unterworfen worden waren. Orientierende Vorversuche hatten gezeigt, dass diese Strahlenschutzmittel bereits ihre Wirkung verloren hatten, wenn sie zwei Stunden vor der Einwirkung der Bestrahlung verabreicht worden waren. Die Bestrahlung wurde, wie aus der Tabelle ersichtlich ist, zwei Minuten nach der Verabreichung, in den meisten Fällen 10 Minuten nach der Verabreichung, aber auch 30 Minuten, bzw. 120 Minuten nach der Verabreichung durchgeführt. Die Werte deuten darauf hin, dass 30 Minuten nach der Verabreichung die Schutzwirkung schon wieder deutlich nachgelassen hat. Für jede Bestrahlungsstärke ist wiederum die Anzahl der Tiere angeführt, die nach 30 Tagen überlebt haben, geteilt durch die Gesamtzahl der Tiere, die behandelt und bestrahlt worden waren.
Anhand dieses Beispiels soll die synergistische Wirkung von Zinkionen und Schwefelverbindungen bezüglich eines Strahlenschutzes erläutert werden. Es wurde wieder in der gleichen Weise gearbeitet, wie in den vorangegangenen Beispielen 1 bis 3, bzw. 5, und es wurde auch die gleiche Art an weiblichen Mäusen getestet. Die Verabreichung der Zinkionen enthaltenden Lösung und der Lösung der Schwefelverbindung erfolgte entweder nacheinander oder gleichzeitig durch intraperitoneale Injektion.
In allen Fällen wurde die Ueberlebensrate 30 Tage nach der Einwirkung der Bestrahlung bestimmt.

[1] = comparison with the zinc compounds to be used according to the invention

N=C(N)SCCN [AET, S-(2-Aminoäthyl)-isothiouroniunibromid-hydrobromid, reference compound]
Ueberlebensrate nach Bestrahlung mit 9 Gy (30 mg/kg i.p.): 1/10
Strahlenschutzwirksamkeit (125 mg/kg body weight, 10 min before irradiation): keine Strahlenschutzwirksamkeit
Ueberlebensrate nach Bestrahlung mit 11 Gy (125 mg/kg i.p., 10 min before 11 Gy): 0/10
Ueberlebensrate nach Bestrahlung mit 13 Gy (125 mg/kg i.p., 10 min before 13 Gy): 0/10
überlebte eine Bestrahlung mit 11 Gy (125 mg/kg, 10 min before 11 Gy): kein Tier
überlebte eine Bestrahlung mit 13 Gy (125 mg/kg, 10 min before 13 Gy): kein Tier
Ueberlebensrate nach Bestrahlung mit 13 Gy (250 mg/kg i.p., 2 min before 13 Gy): 0/10
Ueberlebensrate nach Bestrahlung mit 11 Gy (250 mg/kg i.p., 10 min before 11 Gy): 10/10^+
Ueberlebensrate nach Bestrahlung mit 12 Gy (250 mg/kg i.p., 10 min before 12 Gy): 9/10^+
Ueberlebensrate nach Bestrahlung mit 13 Gy (250 mg/kg i.p., 10 min before 13 Gy): 2/10^+
Ueberlebensrate nach Bestrahlung mit 14 Gy (250 mg/kg i.p., 10 min before 14 Gy): 0/10
Ueberlebensrate nach Bestrahlung mit 11 Gy (250 mg/kg i.p., 30 min before 11 Gy): 10/10
Ueberlebensrate nach Bestrahlung mit 12 Gy (250 mg/kg i.p., 30 min before 12 Gy): 2/10
Ueberlebensrate nach Bestrahlung mit 11 Gy (250 mg/kg i.p., 120 min before 11 Gy): 0/10
überlebten eine Bestrahlung von 11 Gy (250 mg/kg, 10 min before 11 Gy): sämtliche
überlebten eine Bestrahlung von 12 Gy (250 mg/kg, 10 min before 12 Gy): 9 von 10 getesteten Tieren
überlebten eine Bestrahlung von 13 Gy (250 mg/kg, 10 min before 13 Gy): 2 von 10 getesteten Tieren
Bestrahlung von 14 Gy überlebt (250 mg/kg, 10 min before 14 Gy, 10 animals tested): von keinem der 10 getesteten Tiere
Ueberlebensrate in % (11 Gy): 100%
Ueberlebensrate in % (12 Gy): 90%
Ueberlebensrate in % (13 Gy): 20%
Ueberlebensrate in % (14 Gy): 0%

NCCS [Cysteamin, β-Merkaptoäthylamin, reference compound]
Ueberlebensrate nach Bestrahlung mit 10 Gy (75 mg/kg i.p.): 0/10
Strahlenschutzwirkung (150 mg/kg body weight, 10 min before 11 Gy): keine Strahlenschutzwirkung
Ueberlebensrate nach Bestrahlung mit 9 Gy (150 mg/kg i.p.): 10/10
Ueberlebensrate nach Bestrahlung mit 10 Gy (150 mg/kg i.p.): 9/10
Ueberlebensrate nach Bestrahlung mit 11 Gy (150 mg/kg i.p., 10 min before 11 Gy): 0/10
Ueberlebensrate (225 mg/kg alone, injected 10 min before 13 Gy): 10%
Ueberlebensrate nach Bestrahlung mit 14 Gy (225 mg/kg i.p., 2 min before 14 Gy): 0/10
Ueberlebensrate nach Bestrahlung mit 10 Gy (225 mg/kg i.p.): 10/10^+
Ueberlebensrate nach Bestrahlung mit 11 Gy (225 mg/kg i.p., 10 min before 11 Gy): 8/10^+
Ueberlebensrate nach Bestrahlung mit 12 Gy (225 mg/kg i.p., 10 min before 12 Gy): 6/10^+
Ueberlebensrate nach Bestrahlung mit 13 Gy (225 mg/kg i.p., 10 min before 13 Gy): 1/10^+
Ueberlebensrate nach Bestrahlung mit 14 Gy (225 mg/kg i.p., 10 min before 14 Gy): 0/10
Ueberlebensrate nach Bestrahlung mit 11 Gy (225 mg/kg i.p., 30 min before 11 Gy): 6/10
Ueberlebensrate nach Bestrahlung mit 12 Gy (225 mg/kg i.p., 30 min before 12 Gy): 1/10
Ueberlebensrate nach Bestrahlung mit 11 Gy (225 mg/kg i.p., 120 min before 11 Gy): 0/10
überlebten eine Bestrahlung mit 11 Gy (225 mg/kg, 10 min before 11 Gy, of 10 animals tested): 8
überlebten eine Bestrahlung mit 12 Gy (225 mg/kg, 10 min before 12 Gy, of 10 animals tested): 6
überlebten eine Bestrahlung mit 13 Gy (225 mg/kg, 10 min before 13 Gy, of 10 animals tested): 1
überlebten eine Bestrahlung mit 14 Gy (225 mg/kg, 10 min before 14 Gy, of 10 animals tested): keines
überlebten eine Bestrahlung mit 11 Gy (225 mg/kg, 30 min before 11 Gy, of 10 animals tested): 6 Tiere
überlebten eine Bestrahlung mit 12 Gy (225 mg/kg, 30 min before 12 Gy, of 10 animals tested): 1 Tier

N[C@@H](CS)C(=O)O [Cystein, reference compound]
Ueberlebensrate nach Bestrahlung mit 9 Gy (300 mg/kg i.p.): 0/10
Ueberlebensrate nach Bestrahlung mit 9 Gy (600 mg/kg i.p.): 7/10
Ueberlebensrate nach Bestrahlung mit 10 Gy (600 mg/kg i.p.): 3/10
überlebten eine Bestrahlung mit 10 Gy (600 mg/kg): 3 von 10 Mäusen
Ueberlebensrate nach Bestrahlung mit 9 Gy (900 mg/kg i.p.): 10/10^+
Ueberlebensrate nach Bestrahlung mit 10 Gy (900 mg/kg i.p.): 4/10
Ueberlebensrate nach Bestrahlung mit 11 Gy (900 mg/kg i.p., 10 min before 11 Gy): 0/10
überlebten eine Bestrahlung mit 10 Gy (900 mg/kg): 4 von 10 Mäusen
Ueberlebensrate nach Bestrahlung mit 10 Gy (1200 mg/kg i.p.): 9/10^+
Ueberlebensrate nach Bestrahlung mit 11 Gy (1200 mg/kg i.p., 10 min before 11 Gy): 2/10^+
Ueberlebensrate nach Bestrahlung mit 12 Gy (1200 mg/kg i.p., 10 min before 12 Gy): 1/10^+
Ueberlebensrate nach Bestrahlung mit 11 Gy (1200 mg/kg i.p., 30 min before 11 Gy): 0/10
überlebten eine Bestrahlung mit 10 Gy (1200 mg/kg): 9 von 10 Mäusen
überlebten (11 Gy) (1200 mg/kg, 10 min before 11 Gy): zwei
Bestrahlung mit 11 Gy überlebt (600, 900 and 1200 mg/kg, 10 min before 11 Gy): praktisch keinem der Tiere
Strahlenschutzwirkung [1]: deutlich weniger wirksam

N[C@@H](CCC(=O)N[C@@H](CS)C(=O)NCC(=O)O)C(=O)O [L-Glutathion, reference compound]
überlebten eine Bestrahlung mit 9 Gy (100 mg/kg body weight (lower dose)): 3 von 10 Tieren
Ueberlebensrate nach Bestrahlung mit 9 Gy (1000 mg/kg i.p.): 3/10
überlebten eine Bestrahlung mit 9 Gy (2000 mg/kg body weight (higher dose)): 2 von 10 Tieren
Ueberlebensrate nach Bestrahlung mit 9 Gy (2000 mg/kg i.p.): 2/10
Strahlenschutzwirkung [1]: deutlich weniger wirksam

N[C@@H](CC(=O)O)C(=O)[O-].[Na+] [Natriumaspartat, reference compound]
Strahlenschutzwirkung (20 to 350 mg/kg body weight injected 10 min before 9 Gy, lethal dose already reached): wirkungslos

COc1ccc(CCCCNCCSS(=O)(=O)O)cc1 [reference compound]
Synergismus mit Zinkionen (Strahlenschutz) (in combination with zinc ions and zinc complexes, procedure of Example 6): die besten Ergebnisse

Kupferaspartat [reference compound]
Strahlenschutzwirkung (10 to 30 mg/kg body weight injected 10 min before 9 Gy, lethal dose already reached): wirkungslos
